Results on two compounds are retold here after PMC12202533, “Mechanistic Insights and Anti-cancer Activity of 2H-benzo[b][1,4]oxazin-3(4H)-one Linked 1,2,3-Triazoles in Human Cancer Cells” (Frontiers in Pharmacology, 2025).

Series [1] concerns A549 cells. In words: Cellular ROS level measurement (DCFH-DA). To be noted: A549, 5, 10 or 20 μM, 24 h. In kind it is cell-based, human. The source says: Intracellular reactive oxygen species (ROS) generation will result in mitochondrial membrane damage and further induce cell apoptosis and cell death. To determine whether compounds 14b and 14c could induce ROS generation, we treated A549 cells with different doses of these two compounds and measured the intracellular ROS levels using the DCFH-DA peroxide-sensitive fluorescent dye. When DCFH-DA entered the cells, it would hydrolyze into DCFH by esterase and then convert to non-diffusible green fluorescent DCF by oxidation.
FIGURE 6 Compounds 14b and 14c increased ROS levels. A549 cells were treated with different concentrations of 14b (A) and 14c (B) (5 μM, 10 μM, or 20 μM) for 24 h. ROS levels were stained using DCFH-DA, observed by confocal microscopy, and analyzed by ImageJ. Data are presented as mean ± SEM, *P < 0.05.
A549 cells were seeded at a density of 5 × 10^3 cells per well in a 96-well plate and allowed to adhere overnight. Compounds were then added at concentrations of 0, 5, 10, and 20 μM for 24 h. After treatment, the medium was removed, and fresh medium without FBS but containing 10 μM DCFH-DA was added and incubated in the dark for 30 min. The cells were washed three times with FBS-free medium to remove excess probe. ROS levels were then measured and imaged using confocal microscopy.

The subject of series [2] is KM mice. In words: Acute toxicity test in mice. In kind it is in vivo. Conditions: 800 mg/kg oral gavage; for safety / toxicity in mice: 800 mg/kg. On the procedure:
We further evaluated the safety of compound 14b through an acute toxicity study in KM mice. Male and female mice were divided into two groups: a control group and a 14 b-treated group. The treated group received 800 mg/kg of compound 14b via oral gavage, while the control group was given an equivalent volume of solvent. Body weight was monitored over a 15-day period. At the end of the study, blood samples were collected from the retro-orbital sinus to assess the biochemical markers GPT and GOT, and the major organs—heart, liver, spleen, lungs, and kidneys—were weighed and subjected to HE staining.

The structures appear in SMILES notation.

Take `O=C1COc2ccc(NC(=O)c3cccc(-c4cn(-c5ccccc5F)nn4)c3)cc2N1` [Compound 14c]: the ROS generation result in series [1] is reported as “increased ROS generation”.

For `O=C1COc2ccc(NC(=O)c3cccc(-c4cn(-c5cccc(Br)c5)nn4)c3)cc2N1` [Compound 14b], the ROS generation result in series [1] is recorded as “increased ROS generation”. In series [2], the “HE staining of the major organs (heart, liver, spleen, lungs, and kidneys)” value is “no significant histopathological differences”; the “organ indices of the major organs versus control group” value is given as “no significant changes”; the “safety / toxicity in mice” value was “low toxicity”. The “body weight versus control group” value in series [2] (15-day period) is “no significant differences”. In series [2] (blood), the GPT levels entry is given as “slight but not statistically significant increase”. The “safety / toxicity in mice” value in series [2] (listed as 14 b) is listed as “favorable safety profile”.
